Assay results as given in patent US20050159390A1, “Treatment and prevention of HIV and other viral infections” (priority 1998, published 2005).
Where two headings read alike, the source gives them in different places.

Experiments:
HIV-1 IIIB = assay: HIV-1 P24 output in activated human PBMCs, test solutions added post infection; assay type: cell-based; details: repeat with further dilutions; dilution 1:1000
Method: In addition, a similar experiment was performed, except that test solutions were added post infection, at the time of plating into the triplicate wells.

HIV-1III B = assay: HIV-1 P24 output in activated human PBMCs, test solution mixed with virus overnight, day 9; assay type: cell-based; details: for inhibition at 5000 µg/mL (stock): Human immunodeficiency virus 1, PBMC, 216 h, read-out: Inhibition % of the control (P24 output)
Method: Research Grade Purified d-Galactose (CAT# g404, lot 117H00431, FW 180.2, Sigma Chemical Co., St. Louis, Mo.) was dissolved in saline at a concentration of 5 mg/ml. The solution was allowed to stand at room temperature for 15 minutes and mixed by vortex until the galactose was completely dissolved. The galactose solution was divided into two equal aliquots. Stabilizing solution (0.1 ml) was added to one aliquot, then vortexed and incubated at room temperature for 30 minutes. After mixing again, the mixture was centrifuged at 1500 g for 30 minutes and the supernatant was filtered through a 0.2 μm filter and transferred to a sterile 15 ml tube. The solution was sterilized by gamma radiation (2.5 mega RADs) with 15 minutes exposure. The aliquot without the stabilizing solution was labeled “1A” and the aliquot containing the stabilized solution was labeled “1B”. […] […] Control solutions were water.
One ml of each of the dilutions of the test solution or control was mixed with an equal volume of HIV-1III B (˜50 TCID50/2×10^5 cells) to infect activated human PBMCs overnight at 37° C. (3×10^5 cells/dilution). HIV-1III B is a laboratory-adapted strain. The cells then were washed and placed in culture media containing the indicated dilution of the test solution in triplicate wells ([…], ½ medium changes with media containing the indicated dilutions of test solution were made at ˜3 day intervals). The conditioned media were tested for HIV-1 P24 output on day 9 using the DuPont P24 assay kit. The control was infected PBMCs in the absence of test solutions. Results are shown in Table 9 and are measured as the Inhibition % of the control.

HIV-1RF = assay: CEM-SS cell-based assay, inhibition of HIV-induced cell killing (XTT); details: CEM-SS cells
Method: (§1) Cell Preparation: Prior to infection, CEM-SS cells were grown in complete tissue culture medium (RPMI 1640 medium with 10% heat-inactivated fetal bovine serum, 2 mM L-glutamine, 100 U/mL penicillin, 100 μg/mL streptomycin, 10 μg/mL gentamycin) and transferred to T-150 flasks. On the day preceding the assay, the cells were split 1:2 to assure the cells would be in an exponential growth phase at time of infection. On the day of assay, the cells were washed twice with tissue culture medium and resuspended in fresh tissue culture medium. […]
Virus Preparation: Pre-tittered aliquots of HIV-1ROJO and HIV-1RF were removed from the freezer (−80° C.) and thawed to room temperature in a biological safety cabinet. The virus was resuspended and diluted into tissue culture medium such that the amount of virus added to each well in a volume of 50 μL will be the amount determined to give complete cell killing at 6 days post-infection.
Tetrazolium dye staining of screening plates: After 6 days of incubation (37° C. with 5% CO2), the test plates were analyzed by staining with the tetrazolium dye XTT (2,3-b (2-methoxy-4-nitro-5-sulfophenyl)-2H-tetrazolium-5-carboxanilide). XTT-tetrazolium is metabolized by mitochondrial enzymes of metabolically active cells to a soluble formazan product, allowing the rapid quantitative analysis of the inhibition of HIV-induced cell killing by anti-HIV compounds. […]

HIV-1IIIB = assay: as above; details: CEM-SS cells
CEM-SS cells = assay type: cell-based
Method: as §1
(§2) Tetrazolium dye staining of screening plates: After 6 days of incubation (37° C. with 5% CO2), the test plates were analyzed by staining with the tetrazolium dye XTT (2,3-b (2-methoxy-4-nitro-5-sulfophenyl)-2H-tetrazolium-5-carboxanilide). XTT-tetrazolium is metabolized by mitochondrial enzymes of metabolically active cells to a soluble formazan product, allowing the rapid quantitative analysis of the inhibition of HIV-induced cell killing by anti-HIV compounds. […] Plates were sealed with adhesive plate sealers and inverted several times to mix the soluble formazan product and the plate was read spectrophotometrically at 450 nm with a Molecular Devices Vmax plate reader. Indices such as % CPE Reduction (cytopathic effects), % Cell Viability, IC25, IC50, IC95, TC25, TC50, and TC95 and other indices were calculated. […]

PBMCs = assay type: cell-based, human
Method: For the standard PBMC assay, PHA-P stimulated cells from at least two normal donors were pooled, diluted in fresh medium to a final concentration of 1×10^6 cells/mL, and plated in the interior wells of a 96 well round bottom microplate at 50 μL/well (5×10^4 cells/well). Test drug dilutions were prepared at a 2× concentration in microfuge tubes and 100 μL of each concentration was placed in appropriate wells in a standard format. A predetermined dilution of virus stock was placed in each test well (50 μL, final MOI≅0.1). Wells with cells and virus alone were used for virus control. Separate plates were prepared identically without virus for drug cytotoxicity studies using an XTT assay system. […]
as §2, with “reader.” for “reader. Indices such as % CPE Reduction (cytopathic effects), % Cell Viability, IC25, IC50, IC95, TC25, TC50, and TC95 and other indices were calculated.”

X4 strain LAI/IIIB = assay: RT activity in infected PBMCs treated with carbohydrates; assay type: cell-based, HIV; details: summary of Table 17
Method: Reverse Transcriptase Activity Assay: A microtiter based reverse transcriptase (RT) reaction was utilized as described by Buckheit et al., (1991), AIDS Research and Human Retroviruses, 7: 295-302. Tritiated thymidine triphosphate (3H-TTP) was suspended in distilled H2O at 5 Ci/mL. Poly rA and oligo dT were prepared as a stock solution which was kept at −20° C. RT reaction buffer was prepared fresh on a daily basis and contained 125 μL 1M EGTA, 125 μL dH2O, 110 μL 10% SDS, 50 μL 1M Tris (pH 7.4), 50 μL 1M DTT, and 40 μL 1M MgCl2. These three solutions were mixed together in a ratio of 2 parts 3H-TTP, 1 part poly rA:oligo dT, and 1 part reaction buffer. Ten microliters of this reaction mixture were placed in a round bottom microtiter plate and 15 μL of virus containing supernatant were added and mixed. The plate was incubated at 37° C. in a water bath with a solid support to prevent submersion of the plate and incubated for 60 minutes. […] Opti-Fluor-O (Packard) was added to each sample and incorporated radioactivity was quantified utilizing a Wallac 1450 MicroBeta Plus liquid scintillation counter. […]
No carbohydrates were added to the control sample. RT activity was determined at 3, 6, 9, 13, 17, and 20 days post-infection (PI) with X4 strain LAI/IIIB.

[1] = dilution 1:20 of 5 mg/ml solution
[2] = dilution 1:40 of 5 mg/ml solution
[3] = dilution 1:80 of 5 mg/ml solution
[4] = dilution 1:160 of 5 mg/ml solution
[5] = dilution 1:10 of 5 mg/ml solution

## O=C(CO)N[C@H]1[C@H]([C@H](O)[C@H](O)CO)OC(O)(C(=O)O)C[C@@H]1O (single isomer, unassigned) [2A, N-glycolylneuraminic acid]
HIV-1 IIIB
  Inhibition % of Control (P24 output): 7%
HIV-1III B; [1]
  inhibition at 5000 µg/mL (stock): 78%
HIV-1III B; [2]
  inhibition at 5000 µg/mL (stock): 66%
HIV-1III B; [3]
  inhibition at 5000 µg/mL (stock): 41%
HIV-1III B; [4]
  inhibition at 5000 µg/mL (stock): 19%

## O=C(CO)N[C@H]1[C@H]([C@H](O)[C@H](O)CO)OC(O)(C(=O)O)C[C@@H]1O (single isomer, unassigned) [2B, N-glycolylneuraminic acid]
HIV-1 IIIB
  Inhibition % of Control (P24 output): 1%
HIV-1III B; [2]
  Inhibition % of the control (P24 output): 61%

## OC[C@H]1O[C@H](O[C@H]2[C@@H](O)[C@@H](CO)OC(O)[C@@H]2O)[C@H](O)[C@@H](O)[C@H]1O (single isomer, unassigned) [3A, galactose-α 1,3-galactose]
HIV-1III B; [1]
  Inhibition % of the control (P24 output): 3.6%
HIV-1III B; [2]
  Inhibition % of the control (P24 output): 2.2%
HIV-1III B; [3]
  Inhibition % of the control (P24 output): 1.4%
HIV-1III B; [4]
  Inhibition % of the control (P24 output): 0.4%

## OC[C@H]1O[C@H](O[C@H]2[C@@H](O)[C@@H](CO)OC(O)[C@@H]2O)[C@H](O)[C@@H](O)[C@H]1O (single isomer, unassigned) [3B, galactose-α 1,3-galactose]
HIV-1III B; [5]
  Inhibition % of the control (P24 output): 4.6%
HIV-1III B; [1]
  Inhibition % of the control (P24 output): 3.6%
HIV-1III B; [2]
  Inhibition % of the control (P24 output): 1.8%
HIV-1III B; [3]
  Inhibition % of the control (P24 output): 1.1%
HIV-1III B; [4]
  Inhibition % of the control (P24 output): 0.5%

## O=C[C@H](O)[C@@H](O)[C@@H](O)[C@H](O)CO [1A, d-Galactose]
HIV-1III B; [5]
  inhibition at 5000 µg/mL (stock): 4%
HIV-1III B; [1]
  inhibition at 5000 µg/mL (stock): 5%
HIV-1III B; [2]
  inhibition at 5000 µg/mL (stock): 4%
HIV-1III B; [3]
  inhibition at 5000 µg/mL (stock): 2%
HIV-1III B; [4]
  inhibition at 5000 µg/mL (stock): 2%

## O=C[C@H](O)[C@@H](O)[C@@H](O)[C@H](O)CO [1B, d-Galactose]
HIV-1III B; [5]
  Inhibition % of the control (P24 output): 7%
HIV-1III B; [1]
  Inhibition % of the control (P24 output): 5%
HIV-1III B; [2]
  Inhibition % of the control (P24 output): 3%
HIV-1III B; [3]
  Inhibition % of the control (P24 output): 4%
HIV-1III B; [4]
  Inhibition % of the control (P24 output): 2%

## Cc1cn([C@H]2C[C@H](N=[N+]=[N-])[C@@H](CO)O2)c(=O)[nH]c1=O [AZT, reference compound]
HIV-1RF
  IC50: 0.005 to 0.007 µM
HIV-1IIIB
  IC50: 0.011 to 0.017 µM
CEM-SS cells
  CC50: > 1 µM
PBMCs
  CC50: > 4 µM

## CC(=O)N[C@H]1[C@H]([C@H](O)[C@H](O)CO)OC(O)(C(=O)O)C[C@@H]1O (stereo partly shown) [N-acetylneuraminic acid, reference compound]
X4 strain LAI/IIIB
  RT activity in treated cells (in words): decreased RT activity was observed only with high concentrations
